We go through three compounds from US20100184790A1, “PYRROLO[2,3-B]PYRIDINE COMPOUNDS, AZAINDOLE COMPOUNDS USED FOR SYNTHESIZING SAID PYRROLO[2,3-B]PYRIDINE COMPOUNDS, METHODS FOR THE PRODUCTION THEREOF, AND USES THEREOF” (CENTRE NATIONAL DE LA RECHERCHE SCIENTIFIQUE, priority 2007, published 2010).

pIC50: −log10 of the molar value. Like-named read-outs stand apart in the source and are kept apart here.

The subject of one experiment is SH-SY5Y cells. The experiment can be described thus: Cell survival, MTS reduction, SH-SY5Y. The note with it: Homo sapiens; for pIC50: read-out: IC50 survival of SH-SY5Y cells (MTS reduction); for IC50: 8 h, Table 3, forty eight hours after addition, read-out: Survival of the cells (IC50, μM) (MTS reduction) SH-SY5Y (neuroblastoma). It is filed as cell-based. How it is done:
The human neuroblastoma cell line SH-SY5Y was grown in a DMEM medium with L-glutamine originating from Invitrogen (Cergy Pontoise, France), antibiotics and 10% by volume of FCS originating from Invitrogen. […] These compounds were also tested at various concentrations with regard to their effects on SH-SY5Y and HEK293 cells. […] The IC50 values were calculated from the dose-response curves and are given in micromoles (mean±standard deviation of two independent measurements carried out in triplicate). […] The survival of the cells was estimated by the assaying of the degree of reduction of MTS induced by this exposure. […] The ICS© values were calculated from dose-response curves and are given in micromoles in table 3 below.
Background: Tetrazolium dyes change colour on reduction, which living cells bring about.

The target of a further experiment is DYRK1A (Rattus norvegicus, UniProt Q63470). The experiment can be described thus: DYRK1A kinase assay (myelin basic protein). It is filed as biochemical. The note with it: 15 μM ATP, 30° C., myelin basic protein; read-out: IC50 DYRK1A.
The target in the next experiment is T1, protein kinase hSGK1 (Homo sapiens, UniProt O00141).
T1 sequence (O00141 1-431): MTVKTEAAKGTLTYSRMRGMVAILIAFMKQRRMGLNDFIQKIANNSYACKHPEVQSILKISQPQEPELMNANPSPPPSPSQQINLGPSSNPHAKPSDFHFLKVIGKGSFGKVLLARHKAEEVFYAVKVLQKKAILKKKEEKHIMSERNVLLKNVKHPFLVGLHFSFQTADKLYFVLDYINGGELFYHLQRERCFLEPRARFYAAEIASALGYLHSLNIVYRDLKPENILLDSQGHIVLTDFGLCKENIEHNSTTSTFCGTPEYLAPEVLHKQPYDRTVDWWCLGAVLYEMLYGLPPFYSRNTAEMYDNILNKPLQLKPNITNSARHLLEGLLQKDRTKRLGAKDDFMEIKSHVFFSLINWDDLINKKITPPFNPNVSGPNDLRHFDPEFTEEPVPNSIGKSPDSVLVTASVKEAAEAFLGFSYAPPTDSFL
The conditions noted are these: from Angew. Chem. Int. Ed., 2005, 44, 6951-6956; cited from earlier work.

A further experiment addresses CK1δ/ε. The experiment is described as follows: CK1δ/ε kinase assay (CK1-specific peptide). It is filed as biochemical, porcine. The note with it: 15 μM ATP, 30° C. How it is done:
CK1δ/ε was purified from porcine brain by affinity chromatography on an immobilized axin fragment. It was assayed as described for CDK1 but using a CK1-specific peptide substrate.

In a further experiment the test system is HCT116 (colon). The experiment can be described thus: Cell survival, MTS reduction, HCT116. It is filed as cell-based. The note with it: Homo sapiens, HCT-116; forty eight hours after addition; read-out: Survival of the cells (IC50, μM) (MTS reduction) HCT116 (colon). How it is done: (§1) The viability of the cells was determined by measuring the reduction of 3-(4,5-dimethylthiazol-2-yl)-5-(3-carboxymethoxyphenyl)-2-(4-sulfophenyl)-2H/tetrazolium (MTS). The procedure was such as described in detail in Ribas J. et al., 2004, “Cell differentiation, caspase inhibition, and macromolecular synthesis blockage, but not BCL-2 or BCL-XL proteins, protect SH-SYS5 cells from apoptosis triggered by two CDK inhibitory drugs”, Exp. Cell Res., 2004, 195, 9-24.
(§2) The effects of meriolins 2 and 3 on the survival of various cell lines were also tested at various concentrations in order to determine their effects on eight different cell lines. The survival of the cells was expressed forty eight hours after the addition of each meriolin, using the MTS reduction test. The ICS© values were calculated from dose-response curves and are given in micromoles in table 3 below.

For the next experiment, the target named is GSK-3α/β. The experiment can be described thus: GSK-3α/β kinase assay (GS-1 peptide). It is filed as biochemical, porcine. The note with it: 15 μM ATP, 30° C. How it is done:
After incubating at 30° C. for 30 (thirty) minutes, the 25 μl aliquots of the supernatant were treated as described above.

For experiment [1], the system named is Human foreskin fibroblasts. The experiment can be described thus: Cell survival, MTS reduction, human foreskin fibroblasts. It is filed as cell-based. The note with it: Fibroblast, forty eight hours after addition, read-out: Survival of the cells (IC50, μM) (MTS reduction) Human foreskin fibroblasts. How it is done:
as §1, §2

A further experiment concerns MDA-MB-231 (breast). The experiment can be described thus: Cell survival, MTS reduction, MDA-MB-231. It is filed as cell-based. The note with it: Homo sapiens, forty eight hours after addition, read-out: Survival of the cells (IC50, μM) (MTS reduction) MDA-MB-231 (breast). The procedure: as §1, §2
The next experiment deals with CDK1/cyclin B. The experiment is described as follows: CDK1/cyclin B kinase assay (histone H1, [γ-33P]-ATP). The note with it: read-out: IC50 CDK1/cyclin B, 15 μM ATP, 30° C.
Experiment [2] relates to HEK293 (embryonic kidney). The experiment can be described thus: Cell survival, MTS reduction, HEK293. The conditions noted are these: Homo sapiens, forty eight hours after addition, read-out: Survival of the cells (IC50, μM) (MTS reduction) HEK293 (embryonic kidney). It is filed as cell-based. How it is done:
The HEK293 cells were grown in an MEM medium with Glutamax originating from Invitrogen, antibiotics and 10% by volume of FCS.
as §1
The effects of meriolins 2 and 3 on the survival of various cell lines were also tested at various concentrations in order to determine their effects on eight different cell lines. […] The ICS© values were calculated from dose-response curves and are given in micromoles in table 3 below.

Another experiment relates to F1 (hepatoma). The experiment is described as follows: Cell survival, MTS reduction, F1. The note with it: forty eight hours after addition; read-out: Survival of the cells (IC50, μM) (MTS reduction) F1 (hepatoma). It is filed as cell-based. The procedure: as §1, §2
A further experiment concerns Huh7 (hepatoma). The experiment can be described thus: Cell survival, MTS reduction, Huh7. The note with it: Homo sapiens, Huh-7; forty eight hours after addition; read-out: Survival of the cells (IC50, μM) (MTS reduction) Huh7 (hepatoma). It is filed as cell-based. The procedure:
as §1, §2

Another experiment relates to PC3 (prostate). The experiment is described as follows: Cell survival, MTS reduction, PC3. It is filed as cell-based. The conditions noted are these: forty eight hours after addition; read-out: Survival of the cells (IC50, μM) (MTS reduction) PC3 (prostate). The procedure: as §1, §2
The next experiment relates to A4573 cells xenograft. The experiment is described as follows: In vivo antitumor activity, A4573 xenograft. Also noted: species or system athymic male nude mice. The conditions noted are these: 50 mg/kg intraperitoneal once daily, versus control. The procedure: Athymic male nude mice (aged from 5 to 6 weeks) were obtained from the National Cancer Institute. The mice were housed in the animal facility of the Division of Comparative Medicine of Georgetown University. All the studies on the animals were carried out under protocols approved by the Animal Care and Use Committee of Georgetown University. The mice were inoculated by subcutaneous injection into the right posterior flank with 4×10^6 A4573 cells in 100 μl of Matrigel basic membrane matrix (Becton Dickinson). Xenografts were grown to a mean tumor volume of 129±30 mm^3. The compounds tested were first dissolved in either absolute methanol or DMSL (1 volume). A carrier solution was produced using a diluent containing 10% Tween 80, 20% N—N-dimethylacetamide and 70% polyethylene glycol 400 (Fisher Scientific, Pittsburgh, Pa.). The mice were randomly divided into two groups (six animals per group) and the treatment was initiated. […] At these times, the tumors were removed, measured and prepared for TUNEL assays. The primary tumor volumes were calculated by the formula V=(1/2)a×b^2, where a is the longest tumor axis and b is the shortest tumor axis. The values are given in the form of mean±standard deviation values in quantitative experiments. […]

Method for CDK1/cyclin B: Controls were prepared with appropriate dilutions of dimethyl sulfoxide.
After incubating at 30° C. for 30 minutes, 25 μl aliquots of the supernatant were spotted onto filters made of Whatman P81 phosphocellulose paper and, 20 seconds later, the filters were washed 5 times (for at least 5 (five) minutes each time) in a solution of 10 ml of phosphoric acid/liter of water. The wet filters were subjected to counting in the presence of an ACS scintillation fluid from Amersham.

As to `Nc1nccc(-c2c[nH]c3ncccc23)n1` [Meriolin 1, 3-[(2-amino)pyrimidin-4-yl]-1H-pyrrolo[2,3-b]pyridine, reference compound], the results for the pIC50 in the experiment on SH-SY5Y cells (24 h), at DYRK1A and on protein kinase hSGK1 were 6.17, 6.89 and 5.62, respectively.
By IC50 is commonly meant the concentration that inhibits the measured activity by half. As for `Nc1nccc(-c2c[nH]c3nccc(O)c23)n1` [Meriolin 2, 3-[(2-amino)pyrimidin-4-yl]-4-hydroxy-1H-pyrrolo[2,3-b]pyridine], the pIC50 against CK1δ/ε was 7.30; in the experiment with SH-SY5Y cells (Table 2, exposed for 24 hours), 6.39; on DYRK1A it was 7.46; on GSK-3α/β, 6.40; on CDK1/cyclin B it was 7.24. Moreover, the IC50 in the experiment on SH-SY5Y cells stood at 0.41 µM; in the experiment with HCT116 (colon), 0.08 µM; in experiment [1], 20 µM; in the experiment with MDA-MB-231 (breast) it was 1.8 µM; in [2], 2.6 µM; in the experiment on F1 (hepatoma), 2 µM. The figures for the IC50 in the experiment on Huh7 (hepatoma) and in the experiment with PC3 (prostate) were 1 µM and 17.3 µM, respectively.
With `COc1ccnc2[nH]cc(-c3ccnc(N)n3)c12` [Meriolin 3, 3-[(2-amino)pyrimidin-4-yl]-4-methoxy-1H-pyrrolo[2,3-b]pyridine], the pIC50 against CK1δ/ε is 6.70; in the experiment with SH-SY5Y cells (Table 2, exposed for 24 hours), 7.14; on DYRK1A it was 7.54; against GSK-3α/β, 6.64; at CDK1/cyclin B, 6.77. For the same compound, the IC50 in the experiment on SH-SY5Y cells turned out to be 0.072 µM; in the experiment on HCT116 (colon), 0.94 µM; in [1], 8 µM; in the experiment with MDA-MB-231 (breast), 19 µM; in experiment [2], 0.38 µM; in the experiment on F1 (hepatoma) it was 0.26 µM. Moreover, the IC50 with Huh7 (hepatoma) is 0.12 µM; in the experiment with PC3 (prostate) it was 95 µM. Besides, the “mean tumor volume over time (FIG. 3)” value in the experiment with A4573 cells xenograft was “only increases slightly over time”.
